For one test, the target named is adenosine A2A receptor (Homo sapiens (Human), UniProt P29274). Kind of test: Adenosine receptor activity assay (Table 1), A2A activity. The test is classed as biochemical. Particulars: read-out: Ave A2A cAMP IC50.
The target of the next test is adenosine A2B receptor (Homo sapiens (Human), UniProt P29275). Kind of test: Adenosine receptor activity assay (Table 1), A2B activity. The test is classed as biochemical. Particulars: for IC50: read-out: Ave A2B cAMP IC50.
Setting [1] is: A2A activity to A2B activity (A2A/A2B).
[2] abbreviates: A2A activity to the A2B activity, A2A/A2B.

A word on the IC50: it is the concentration that inhibits the measured activity by half.

adenosine A2B receptor, sequence (P29275 whole entry): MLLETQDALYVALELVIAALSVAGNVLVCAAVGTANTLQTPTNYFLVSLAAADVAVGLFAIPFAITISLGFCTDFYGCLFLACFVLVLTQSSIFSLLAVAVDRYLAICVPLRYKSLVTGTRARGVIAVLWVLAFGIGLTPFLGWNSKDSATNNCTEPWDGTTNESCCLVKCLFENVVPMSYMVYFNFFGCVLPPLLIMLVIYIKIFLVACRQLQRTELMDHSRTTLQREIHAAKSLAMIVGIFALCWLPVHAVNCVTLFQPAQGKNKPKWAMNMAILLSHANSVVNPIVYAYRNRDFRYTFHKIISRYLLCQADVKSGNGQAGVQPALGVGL
adenosine A2A receptor, sequence (P29274 whole entry): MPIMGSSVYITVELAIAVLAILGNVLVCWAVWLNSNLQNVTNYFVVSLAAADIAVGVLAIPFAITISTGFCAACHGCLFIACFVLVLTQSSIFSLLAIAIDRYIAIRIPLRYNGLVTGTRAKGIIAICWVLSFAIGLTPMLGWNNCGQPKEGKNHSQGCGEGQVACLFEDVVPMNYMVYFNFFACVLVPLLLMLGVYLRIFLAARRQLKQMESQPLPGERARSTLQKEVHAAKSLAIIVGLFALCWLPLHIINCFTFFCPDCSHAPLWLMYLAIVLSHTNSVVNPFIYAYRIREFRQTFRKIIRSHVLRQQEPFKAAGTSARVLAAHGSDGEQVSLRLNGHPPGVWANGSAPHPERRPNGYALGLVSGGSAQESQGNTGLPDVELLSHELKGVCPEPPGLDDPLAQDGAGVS

With `C[C@H](Nc1nc(C(=O)N2CC[C@@H](O)C2)c2sc(C(F)(F)F)cc2n1)c1ccccn1` [Example Z349, ((R)-3-Hydroxypyrrolidin-1-yl)(2-(((S)-1-(pyridin-2-yl)ethyl)amino)-6-(trifluoromethyl)thieno[3,2-d]pyrimidin-4-yl)methanone], the IC50 was more than 0.5 µM at adenosine A2A receptor and 0.01 to 0.05 µM at adenosine A2B receptor. For the same compound, the Ratio at adenosine A2B receptor (setting [1]) was 46.63.
Regarding `C[C@H](Nc1nc(C(=O)NC2CNC2)c2sccc2n1)c1cncc(F)c1` [Example Z397, (S)—N-(Azetidin-3-yl)-2-((1-(5-fluoropyridin-3-yl)ethyl)amino)thieno[3,2-d]pyrimidine-4-carboxamide], the 50% inhibitory concentration (IC50) at adenosine A2A receptor and on adenosine A2B receptor was more than 0.5 µM in each case. Also, on adenosine A2B receptor (setting [1]), the Ratio amounted to 11.51.
In the case of `C[C@H](Nc1nc(C(=O)N2CC[C@H](S(C)(=O)=O)C2)c2sccc2n1)c1ccccn1` [Example Z274], the IC50 on adenosine A2A receptor and on adenosine A2B receptor was 0.1 to 0.5 µM each time. Moreover, the Ratio on adenosine A2B receptor (setting [1]) turned out to be 1.11.
`CC(=O)N[C@@H]1CCN(C(=O)c2nc(NCc3cncc(F)c3)nc3ccsc23)C1` [Example Z318, (R)—N-(1-(2-(((5-Fluoropyridin-3-yl)methyl)amino)thieno[3,2-d]pyrimidine-4-carbonyl)pyrrolidin-3-yl)acetamide]: the IC50 on adenosine A2A receptor and at adenosine A2B receptor was more than 0.5 µM each time. In addition, the Ratio at adenosine A2B receptor (setting [1]) was 17.41.
`O=C(c1nc(NCc2cccnc2)nc2ccsc12)N1CC[C@@H](O)C1` [Example Z103, (R)-(3-Hydroxypyrrolidin-1-yl)(2-((pyridin-3-ylmethyl)amino)thieno[3,2-d]pyrimidin-4-yl)methanone]: the IC50 at adenosine A2A receptor is more than 0.5 µM; on adenosine A2B receptor, 0.1 to 0.5 µM. For the same compound, the Ratio on adenosine A2B receptor (setting [1]) is 3.68.
In the case of `CCNC(=O)c1nc(NCCc2ccc(O)cc2)nc2ccsc12` [Example Z460, N-Ethyl-2-((4-hydroxyphenethyl)amino)thieno[3,2-d]pyrimidine-4-carboxamide], the half-inhibitory concentration (IC50) on adenosine A2A receptor and at adenosine A2B receptor was 0.1 to 0.5 µM throughout. Moreover, the Ratio at adenosine A2B receptor (setting [2]) turned out to be 0.84.
Take `O=C(NCc1ccccc1)c1nc(NCc2ccccc2)nc2ccsc12` [Example Z51, N-Benzyl-2-(benzylamino)thieno[3,2-d]pyrimidine-4-carboxamide]: the 50% inhibitory concentration (IC50) on adenosine A2A receptor and at adenosine A2B receptor was 0.1 to 0.5 µM in each case. For the same compound, the Ratio at adenosine A2B receptor (setting [1]) worked out at 0.40.
On to `C[C@H](Nc1nc(C(=O)N2CC[C@H](NC(=O)OCc3ccccc3)C2)c2sccc2n1)c1cncc(F)c1` [Example Z472, Benzyl ((S)-1-(2-(((S)-1-(5-fluoropyridin-3-yl)ethyl)amino)thieno[3,2-d]pyrimidine-4-carbonyl)pyrrolidin-3-yl)carbamate], for which the 50% inhibitory concentration (IC50) is more than 0.5 µM at adenosine A2A receptor and 0.01 to 0.05 µM at adenosine A2B receptor. The Ratio at adenosine A2B receptor (setting [2]) worked out at 8.61.
For `COC[C@@H]1CCN(C(=O)c2nc(N[C@@H](C)c3ccccn3)nc3ccsc23)C1` [Example Z471, ((R)-3-(Methoxymethyl)pyrrolidin-1-yl)(2-(((S)-1-(pyridin-2-yl)ethyl)amino)thieno[3,2-d]pyrimidin-4-yl)methanone], in that order: 0.1 to 0.5 µM, 0.05 to 0.1 µM and 7.81.
For the compound `O=C(NCCn1ccnc1)c1nc(NCc2cncc(F)c2)nc2ccsc12` [Example Z85, N-(2-(1H-Imidazol-1-yl)ethyl)-2-(((5-fluoropyridin-3-yl)methyl)amino)thieno[3,2-d]pyrimidine-4-carboxamide], the IC50 at adenosine A2A receptor and at adenosine A2B receptor was more than 0.5 µM in each case. On adenosine A2B receptor (setting [1]), the Ratio was found to be 1.04.
Regarding `CO[C@@H]1CCN(C(=O)c2nc(N[C@@H](C)c3cccnc3)nc3cc(C)sc23)C1` [Example Z351, ((R)-3-Methoxypyrrolidin-1-yl)(6-methyl-2-(((S)-1-(pyridin-3-yl)ethyl)amino)thieno[3,2-d]pyrimidin-4-yl)methanone], the figures for the 50% inhibitory concentration (IC50) on adenosine A2A receptor and at adenosine A2B receptor were 0.05 to 0.1 µM and less than 0.01 µM, respectively. Further, at adenosine A2B receptor (setting [1]), the Ratio came out at 10.17.
For `Cc1cc2nc(N[C@@H](C)c3cccnc3)nc(C(=O)NCC3CCNCC3)c2s1` [Example Z377, (S)-6-Methyl-N-(piperidin-4-ylmethyl)-2-((1-(pyridin-3-yl)ethyl)amino)thieno[3,2-d]pyrimidine-4-carboxamide], in that order: more than 0.5 µM, 0.1 to 0.5 µM and 39.59.
Take `COc1ccc(CNC(=O)c2nc(NCc3cccc(F)c3)nc3ccsc23)cn1` [Example Z82, 2-((3-Fluorobenzyl)amino)-N-((6-methoxypyridin-3-yl)methyl)thieno[3,2-d]pyrimidine-4-carboxamide]: the concentration for half-maximal inhibition (IC50) at adenosine A2A receptor and on adenosine A2B receptor was 0.05 to 0.1 µM in each case. For the same compound, on adenosine A2B receptor (setting [1]), the Ratio is 1.03.
`C[C@H](Nc1nc(C(=O)NCCC2CCN(C(=O)OC(C)(C)C)C2)c2sccc2n1)c1ccccn1` (stereo partly drawn) [Example Z425, tert-Butyl 3-(2-(2-(((S)-1-(pyridin-2-yl)ethyl)amino)thieno[3,2-d]pyrimidine-4-carboxamido)ethyl)pyrrolidine-1-carboxylate]: the IC50 at adenosine A2A receptor lay in the range of 0.05 to 0.1 µM; at adenosine A2B receptor it was 0.1 to 0.5 µM. The Ratio on adenosine A2B receptor (setting [2]) is listed as 0.82.
As to `CCN(CC)C(=O)c1nc(N[C@@H](C)c2cccnc2)nc2ccsc12` [Example Z41, (S)—N,N-Diethyl-2-((1-(pyridin-3-yl)ethyl)amino)thieno[3,2-d]pyrimidine-4-carboxamide], the IC50 on adenosine A2A receptor and on adenosine A2B receptor was more than 0.5 µM in each case. Further, the Ratio at adenosine A2B receptor (setting [1]) stood at 1.00.
For `O=C(c1nc(NCc2cncc(F)c2)nc2ccsc12)N1CCNC1` [Example Z149, (2-(((5-Fluoropyridin-3-yl)methyl)amino)thieno[3,2-d]pyrimidin-4-yl)(imidazolidin-1-yl)methanone], the IC50 on adenosine A2A receptor and on adenosine A2B receptor was more than 0.5 µM throughout. The Ratio at adenosine A2B receptor (setting [1]) is given as 14.43.
`O=C(c1nc(NCc2ccccc2)nc2ccsc12)N1CC[C@H](O)C1` [Example Z40, (S)-(2-(Benzylamino)thieno[3,2-d]pyrimidin-4-yl)(3-hydroxypyrrolidin-1-yl)methanone]: the half-inhibitory concentration (IC50) on adenosine A2A receptor was more than 0.5 µM; at adenosine A2B receptor, 0.1 to 0.5 µM. Also, the Ratio on adenosine A2B receptor (setting [1]) is on record as 21.05.
Consider `C[C@H](Nc1nc(C(=O)N2CCN(C(=O)OC(C)(C)C)C2)c2sccc2n1)c1cncc(F)c1` [Example Z584, tert-Butyl (S)-3-(2-((1-(5-fluoropyridin-3-yl)ethyl)amino)thieno[3,2-d]pyrimidine-4-carbonyl)imidazolidine-1-carboxylate], for which the IC50 at adenosine A2A receptor is more than 0.5 µM; on adenosine A2B receptor it was 0.1 to 0.5 µM. The Ratio at adenosine A2B receptor (setting [2]) came out at 2.34.
`Cc1cc2nc(N[C@@H](C)c3cccnc3)nc(C(=O)NC[C@H]3CCOC3)c2s1` [Example Z388, 6-Methyl-2-(((S)-1-(pyridin-3-yl)ethyl)amino)-N—(((R)-tetrahydrofuran-3-yl)methyl)thieno[3,2-d]pyrimidine-4-carboxamide]: the values for the half-inhibitory concentration (IC50) on adenosine A2A receptor and at adenosine A2B receptor were more than 0.5 µM and 0.05 to 0.1 µM, respectively. Moreover, on adenosine A2B receptor (setting [1]), the Ratio was 10.69.
In the case of `C[C@H](Nc1nc(C(=O)NCCNS(C)(=O)=O)c2sccc2n1)c1cncc(F)c1` [Example Z538, (S)-2-((1-(5-Fluoropyridin-3-yl)ethyl)amino)-N-(2-(methylsulfonamido)ethyl)thieno[3,2-d]pyrimidine-4-carboxamide], the IC50 was more than 0.5 µM at adenosine A2A receptor and 0.01 to 0.05 µM on adenosine A2B receptor. Besides, the Ratio at adenosine A2B receptor (setting [2]) was found to be 12.33.
Take `C[C@H](Nc1nc(C(=O)N2CCC(C(=O)OC(C)(C)C)C2)c2sccc2n1)c1cncc(F)c1` (stereo partly drawn) [Example Z354, tert-Butyl 1-(2-(((S)-1-(5-fluoropyridin-3-yl)ethyl)amino)thieno[3,2-d]pyrimidine-4-carbonyl)pyrrolidine-3-carboxylate]: the IC50 on adenosine A2A receptor is 0.1 to 0.5 µM; at adenosine A2B receptor, 0.01 to 0.05 µM. Further, at adenosine A2B receptor (setting [1]), the Ratio is 6.35.
On the same counts, the results for `O=C(NCc1ccccn1)c1nc(NCc2ccccn2)nc2ccsc12` [Example Z78, N-(Pyridin-2-ylmethyl)-2-((pyridin-2-ylmethyl)amino)thieno[3,2-d]pyrimidine-4-carboxamide] are 0.1 to 0.5 µM, 0.05 to 0.1 µM and 2.02.
For `C[C@H](Nc1nc(C(=O)NCCO)c2sccc2n1)c1ccccn1` [Example Z106, (S)—N-(2-hydroxyethyl)-2-((1-(pyridin-2-yl)ethyl)amino)thieno[3,2-d]pyrimidine-4-carboxamide], the figures for the IC50 on adenosine A2A receptor and on adenosine A2B receptor were 0.1 to 0.5 µM and 0.01 to 0.05 µM, respectively. In addition, the Ratio at adenosine A2B receptor (setting [1]) was determined as 2.95.
For the compound `COCC1CN(C(=O)c2nc(N[C@@H](C)c3ccccn3)nc3cc(C)sc23)C1` [Example Z514, (S)-(3-(Methoxymethyl)azetidin-1-yl)(6-methyl-2-((1-(pyridin-2-yl)ethyl)amino)thieno[3,2-d]pyrimidin-4-yl)methanone], the IC50 at adenosine A2A receptor is 0.01 to 0.05 µM; at adenosine A2B receptor, less than 0.01 µM. Moreover, at adenosine A2B receptor (setting [2]), the Ratio is 5.47.
On to “2-(((5-Fluoropyridin-3-yl)methyl)amino)-N-((tetrahydro-2H-pyran-4-yl)methyl)thieno[3,2-d]pyrimidine-4-carboxamide [Example Z219]”, for which the results for the IC50 on adenosine A2A receptor and at adenosine A2B receptor were 0.1 to 0.5 µM and 0.01 to 0.05 µM, respectively. Besides, on adenosine A2B receptor (setting [1]), the Ratio came to 8.45.
Regarding `C[C@H](Nc1nc(C(=O)NCCS(C)(=O)=O)c2sccc2n1)c1ccccn1` [Example Z215, (S)—N-(2-(Methylsulfonyl)ethyl)-2-((1-(pyridin-2-yl)ethyl)amino)thieno[3,2-d]pyrimidine-4-carboxamide], the IC50 at adenosine A2A receptor and at adenosine A2B receptor was 0.1 to 0.5 µM throughout. In addition, the Ratio at adenosine A2B receptor (setting [1]) is on record as 2.95.
Take `C[C@H](Nc1nc(C(=O)N2CC[C@H](NC(=O)OC(C)(C)C)C2)c2sccc2n1)c1ccccn1` [Example Z315, tert-Butyl ((S)-1-(2-(((S)-1-(pyridin-2-yl)ethyl)amino)thieno[3,2-d]pyrimidine-4-carbonyl)pyrrolidin-3-yl)carbamate]: the IC50 on adenosine A2A receptor and at adenosine A2B receptor was 0.05 to 0.1 µM in each case. In addition, at adenosine A2B receptor (setting [1]), the Ratio was found to be 0.67.

Values taken from patent US11254686B1 (Corvus Pharmaceuticals, Inc., priority 2017, dated 2022).
